Data: paper PMC4585737, “Lipoproteins/peptides are sepsis-inducing toxins from bacteria that can be neutralized by synthetic anti-endotoxin peptides” (Scientific Reports, 2015)
Entries after “also recorded” stand apart in the source; their conditions may differ. Where no end group is shown, it is not given here. [ ]: non-standard residue; d: D form.

What was measured:
[1] = system: human mononuclear cells; assay: TNFα production in human mononuclear cells (MNC) stimulated by LP, LTA or PGN, and its inhibition by SALP; type: cell-based; conditions: for stimulation of MNC (TNFα induction) compared with LPS / TNFα when adding 100 ng/ml of LP / concentration necessary to induce an observable TNFα secretion: human MNC; for stimulation of MNC (TNFα induction) compared with LPS: 4 h, ELISA
Experimental: The stimulation of MNC was performed as described previously. Briefly, MNC were isolated from heparinized blood of healthy donors by the Hypaque-Ficoll density gradient method. The cell number was equilibrated at 5 × 10^6 cells/ml RPMI 1640 containing 2 mM L-glutamine, 100 U/ml penicillin and 100 μg/ml streptomycin. For stimulation, 200 μl/well MNC were transferred into 96-well culture plates. The stimuli were serially diluted in RPMI 1640 and added to the cultures at 20 μl per well. The cultures were incubated for 4 h at 37 °C under 5% CO2. Cell-free supernatants were collected after centrifugation of the culture plates for 10 min at 400 × g and stored at −20 °C until the determination of the cytokine content. Immunological determination of TNFα in the cell supernatant was performed in a sandwich-ELISA as described earlier (OptEIA; BD, Heidelberg, Germany). TNFα was determined and measured following manufacturer’s instructions and results are the average of two assays.
LP preparations were pre-warmed for 30 min at 37 °C, and added to the cultures at 20 μl per well. In inhibition experiments, different SALP were added directly after LPS/LP/LTA administration.
Since the data of the stimulation of human MNC by the bacterial and synthetic LP was taken over a time period of more than 6 years, the TNFα production lead to considerable variations due to different batches of LP and of Pep19-2.5, and in particular due to variations resulting from blood samples of different donors. Because the main emphasis laid here is the efficiency of the peptide to inhibit the cytokine production, most figures describe the inhibition efficieny of the peptide in %, by presenting the means ± SEM of at least 3 independent experiments. The absolute values of the cytokine production, where of note, is given separately in the text.

[2] = system: human MNCs; conditions: cited from earlier work
From the text: In this section, we first present in vitro data on the production of pro-inflammatory cytokines by human cells in response to LP or LTA from different origin and its neutralization by SALP. Then, we used a mouse model of acute toxemia to characterize the in vivo expression of those cytokines and to study if SALP can protect animals against lethal LP-induced sepsis.

[3] = active LP adopt non-lamellar aggregates, inactive a lamellar aggregate structure; cited from earlier work
From the text: Similar arguments regarding the bioactive conical conformation of ...

[4] = system: Balb/C mice; assay: Serum cytokine response in mice after intraperitoneal inoculation; type: in vivo, mouse; conditions: 40 μg FSL-1 i.p.
Experimental: (§1) Seven-week-old female SPF-free Balb/C mice of 20 g of body weight, approximately, were purchased from Harlan Spain (Harlan Interfauna Iberica S.A., Barcelona, Spain) and randomly distributed in experimental groups (at least 4 animals per group except for the determination of lethal dose (n = 3)). Sample size was calculated based on previous results with the same animal model. Animals were housed in individually ventilated cages (5 mice per cage) bedded with hardwood bedding. Mice were provided ad libitum access to feed and water and lighting was adjusted to a 14-hour light/10-hour dark cycle. During the experiments, the condition of the animals was monitored daily every 4 hours and animals displaying persistent motor ataxia and hunched posture were euthanized.
To study if FSL-1 had pro-inflammatory cytokine-inducing activity, animals were intraperitoneally inoculated with 40 μg of FSL-1 resuspended in 200 μl of pyrogen-free saline. Blood samples were taken both at 1.5 h or 4 h after FSL-1 challenge to measure TNFα and IL-6 levels. For this purpose, mice were anesthetised, a blood sample was obtained by the retroorbital plexus and serum cytokine levels were measured using Quantikine Immunoassays kits (R&D systems, Minneapolis, USA) following manufacturer’s instructions. Differences between groups were statistically analyzed using the Mann-Whitney U test.
To evaluate the ability of Aspidasept® to neutralize the FSL-1 induced pro-inflammatory cytokines, a group of animals received by the intraperitoneal route first 40 μg of FSL-1 and then 400 μg of the drug resuspended in 100 μl of pyrogen-free saline. This second injection was administered immediately after FSL-1 challenge at a different site of the peritoneum. TNFα and IL-6 levels were measured (see above) at 1.5 h or 4 h after challenge, respectively, coinciding with the peak of cytokine secretion, as determined in preliminary experiments.

[5] = system: Balb/C mice; assay: Lethal toxemia in galactosamine-sensitized mice; type: in vivo, mouse; conditions: for physical activity / survival score of each animal: n = 3, one score per animal
Experimental: as §1
To determine the lethal dose of FSL-1 in mice, the method of Galanos and collaborators[48] was followed with some modifications. Briefly, animals were intraperitoneally inoculated with increasing amounts of FSL-1 (50 ng, 500 ng, 5 μg and 50 μg) supplemented with 18 mg of D-galactosamine in a final volume of 200 μl of pyrogen-free saline. Galactosamine is known to sensitize mice to pro-inflammatory compounds such as LPS, thus making it possible to use lower amounts of the stimulatory drug[46]. The ability of Aspidasept® to protect mice from FSL-1 dependent lethal toxemia was assessed by co-administering FSL-1 (4 μg/mouse) with D-galactosamine (18 mg/mouse) intraperitoneally.
Results were globally analyzed by means of a Kaplan-Meier survival analysis (SPSS 15.0). When the survival plots were parallel, the data were compared by the log-rank test, whereas the Breslow-Gehan-Wilcoxon test was applied when the plots intersected.

[6] = system: rats; conditions: ref Hübschle et al. 39; cited from earlier work
From the text: (§2) Whereas for Gram-negative species the major inflammation- and sepsis-inducing compounds are endotoxins, the responsible compounds for endotoxin-free organisms (Gram-positive bacteria, fungi, mycoplasma, some Gram-negative bacteria) are poorly described or unknown. From the present data, however, it appears to be that LP are the decisive compounds for inflammation- a ...

[7] = system: guinea pigs; conditions: ref Greis et al. 40; cited from earlier work
From the text: as §2

[8] = system: human TLR2; assay: IL-8 production in HEK293 cells transfected with TLR2; type: cell-based; conditions: HEK293, 18 hours stimulation, relatively high LP concentrations; ELISA
Experimental: For HEK cell activation, human IL-8 was determined by sandwich enzyme-linked immunosorbent assay using IL-8 cytoset from BIOSOURCE (Life Technologies GmbH, Darmstadt Germany) exactly according to the manufacturer’s protocol. For transient transfection, HEK293 cells were plated at a density of 2.5 × 10^4/well in 96-well plates in Dulbecco’s modified Eagle’s medium (PAA, Pasching, Germany). The following day, cells were transfected using Lipofectamine (Life technologies) according to the manufacturer’s protocol. Expression plasmid containing the FLAG-tagged version of human TLR2 was a kind gift from P. Nelson, Seattle, WA and subcloned into pREP9 (Life Technologies). TLR2 plasmid was used at 100 ng/transfection. After 24 hours of transfection, cells were washed and stimulated for 18 hours with indicated compounds and positive controls. Finally, supernatants were collected and the interleukin-8 content was quantified using a commercial ELISA (Life technologies).
Data shown are the mean ± S.D. of triplicate samples of one experiment and representative of two independent experiments.

[9] = system: TLR4; assay: IL-8 production in HEK cells transfected with a TLR4 expression vector; type: cell-based; conditions: for IL-8 in TLR4-transfected cells: HEK cells, ELISA
[10] = system: macrophages; conditions: LP 19 KDa from M. tuberculosis; cited from earlier work
From the text: When adding the polycationic polymyxin B (PMB), a traditional AMP[43] to the shortened 19 KDa LP, a similar lack of interaction was observed.

[11] = biological target: T1, FSL-1 (fibroblast-stimulating lipopeptide) (Mycoplasma salivarium); assay: ITC; lipopeptide 0.05 mM dispersion in the cell (1.5 ml); peptide 1 mM titrated in 3 μl aliquots every 5 min; 37 °C; MCS calorimeter; conditions: both partners purified
T1 construct: the first C stands for the lipidated cysteine; Shortened analogue of the 44-kDa lipoprotein LP44 of Mycoplasma salivarium, its N-terminal part; stood in the assays as an aggregate dispersion of the lipopeptide; also called LP FSL-1; source: synthetic lipopeptide, EMC microcollections GmbH (Tübingen)
T1 peptide: [Pam2Cys]GDPKHPKSF

In the case of GCRRFKKFKKWRYRGRFWFWCFG [Pep19–12], the “inhibition of Pam3CSK4-induced cytokine (TNFα) production” value ([1]; stimulus Pam3CSK4 1000, 100, 10 ng/ml, [LP]:[Pep] up to 1:100 weight%) is reported as “no or only a small inhibition”.

For “GKKYRRFRWKFKGKWFWFG [Pep19–4, synthetic anti-LPS peptide (SALP)]”, the “inhibition efficiency in the biological experiments” value [2] is given as “moderate”.

For “GRRYKKFRWKFKGRWFWFG [Pep19–8, synthetic anti-LPS peptide (SALP)]”, the “inhibition efficiency in the biological experiments” value [2] is listed as “low”.

For Pam2CSK4, the biological activity [3] is listed as “biologically active”.

With “Pam2Cys-GDPKHPKSF [FSL-1, fibroblast-stimulating lipopeptide, synthetic diacyl LP, shortened analogue of the 44-kDa LP LP44 of Mycoplasma salivarium]” the “time of peak serum IL-6 level” value ([4]; data not shown) was 4 h, the “time of peak serum TNFα level” value ([4]; data not shown) was 90 min and the “serum TNFα response” value ([4]; n = 4, 1.5 h) was “potent”. For the same molecule, the “serum IL-6 response” value ([4]; n = 4, 4 h) was “potent”, the “stimulation of MNC (TNFα induction) compared with LPS” value (“stimulation … compared with LPS” for short) [1] was “potency similar to that of LPS; also recorded: similarly active” and the “physical activity / survival score of each animal” value (“physical activity / survival score” below) ([5]; 500 ng FSL-1 i.p. + D-galactosamine 18 mg/mouse, 24 hours) was “† † †”. For the same molecule, the “physical activity / survival score” value ([5]; 500 ng FSL-1 i.p. + D-galactosamine 18 mg/mouse, 48 hours) was “† † †”, the “time to symptoms of sepsis (reduced motor activity, lethargy, shivering, piloerection)” value ([5]; 4 μg FSL-1 i.p. + D-galactosamine 18 mg/mouse) was at most 120 min and the “physical activity / survival score” value ([5]; 5 μg FSL-1 i.p. + D-galactosamine 18 mg/mouse, 24 hours) was “† † †”. The “physical activity / survival score” value ([5]; 5 μg FSL-1 i.p. + D-galactosamine 18 mg/mouse, 48 hours) was “† † †”, the “physical activity / survival score” value ([5]; 50 μg FSL-1 i.p. + D-galactosamine 18 mg/mouse, 24 hours) was “† † †” and the “physical activity / survival score” value ([5]; 50 μg FSL-1 i.p. + D-galactosamine 18 mg/mouse, 48 hours) was “† † †”. The “amount necessary to kill 100% of the animals in 48 h (LD100)” value ([5]; galactosamine-sensitized Balb/C mice, i.p., n = 3 per dose) was 500 ng/mouse, the “LD100 relative to the equivalent LD100 of Salmonella minnesota LPS” value ([5]; identical experimental conditions, LPS value from ref 24) was 10 times higher and the “in vivo biological activity” value [6] was “High”. For the same molecule, the “in vivo biological activity” value [7] was “High”.

In the case of “Pam2Cys-GNNDESNISFKEK [MALP-2, reference compound]”, the “stimulation … compared with LPS” value [1] is reported as “similarly active”.

With “Pam3Cys-KQNVSSLDEKNSVSV [LP OspA, synthetic triacyl LP, shortened analogue of OspA from Borrelia burgdorferi]” the “IL-8 secreting activity in TLR-2 transfected cells” value (“IL-8 secreting activity” below) [8] was “considerable IL-8 secreting activity” and the “IL-8 in TLR4-transfected cells” value [9] was “nearly no IL-8 signal”.

In the case of “Pam3Cys-NNSGKDGNTSANSAD [LP OspC, synthetic triacyl LP, shortened analogue of OspC from Borrelia burgdorferi]”, the “IL-8 secreting activity” value [8] is reported as “considerable IL-8 secreting activity” and the “IL-8 in TLR4-transfected cells” value [9] is reported as “nearly no IL-8 signal”.

In the case of “Pam3Cys-SKKKK [Pam3CSK4, reference compound]”, the “IL-8 secreting activity” value [8] is reported as “considerable IL-8 secreting activity”, the “activation of MNC at 1 ng/ml” value ([1]; 1 ng/ml, data not shown) is reported as “not” and the “activation of MNC at 10 ng/ml” value ([1]; 10 ng/ml, data not shown) is reported as “some activation takes place”. The “stimulation … compared with LPS” value [1] was “markedly lower level than LPS” and the biological activity [3] was “biologically active”.

With “Pam3Cys-SQEPAAPAAEATPAG [LP H8, synthetic triacyl LP, shortened analogue of LP blp NG from Neisseria gonorrhoeae]” the “IL-8 secreting activity” value [8] was “considerable IL-8 secreting activity”, the “IL-8 in TLR4-transfected cells” value [9] was “nearly no IL-8 signal” and the “TNFα when adding 100 ng/ml of LP” value ([1]; data not shown) was “no detectable amounts”. For the same molecule, the “concentration necessary to induce an observable TNFα secretion” value ([1]; data not shown) was 10 µg/mL.

With “Pam3Cys-SSSNNDAAGNGAAQT [LP P6, synthetic triacyl LP, shortened analogue of protein P6 from Haemophilus influenzae]” the “IL-8 secreting activity” value [8] was “considerable IL-8 secreting activity”, the “IL-8 in TLR4-transfected cells at high concentration” value ([9]; 10 μg/ml) was “significant amounts of IL-8” and the “TNFα when adding 100 ng/ml of LP” value ([1]; data not shown) was “no detectable amounts”. For the same molecule, the “concentration necessary to induce an observable TNFα secretion” value ([1]; data not shown) was 10 µg/mL.

In the case of polymyxin B, the “inhibition of the stimulation of macrophages by the shortened 19 KDa LP” value [10] is given as “lack of biological inhibition”.

B1: Pep19-2.5 (Aspidasept^®) (peptide)
peptide: GCKKYRRFRWKFKGKFWFWG-NH2
notes: designed synthetic anti-LPS peptide, 20-mer; purity >95% (HPLC, MALDI-TOF); also called SALP; synthetic anti-LPS peptide; source: synthetic peptide; batches produced by BACHEM (Bubendorf, Switzerland)
B1: binds [11].
